Test results taken from patent US11787812B2, “Substituted pyrazolo[4,3-d]pyrimidines and imidazo[5,1 -f][1,2,4]triazines as androgen receptor and phosphodiesterase dual inhibitors” (ILDONG PHARMACEUTICAL CO., LTD., priority 2020, dated 2023).

Assays:
human PDE-5A1 = human PDE-5A1 (Homo sapiens (Human), UniProt O76074); assay: Human PDE-5A1 inhibition assay (fluorescence polarization, FAM-cGMP); assay type: biochemical; conditions: human PDE5A1, 100 nM FAM-cGMP, 60 minutes room temperature
Description: This example illustrates the in vitro inhibition of human PDE-5A1 by exemplary compounds of this disclosure (e.g., as described herein).
Sildenafil citrate (Catalog no. LKT-S3313, Axxora, San Diego, CA), Vardenafil hydrochloride trihydrate (Catalog no. SML2103, Sigma-Aldrich, St. Louis, MO), PDE Assay Buffer (Catalog no. 60393, BPS bioscience, San Diego, CA), PDE Binding Agent (Catalog no. 60390, BPS bioscience, San Diego, CA) and PDE Binding Agent Diluent (cGMP, Catalog no. 60392, BPS bioscience, San Diego, CA) were used for assays. Test compounds were supplied by Ildong Pharmaceuticals Co., Ltd.
The serial dilution of the compounds was first performed in 100% DMSO with the highest concentration at 1 mM and 0.1 mM. Each intermediate compound dilution (in 100% DMSO) will then get directly diluted 10× fold into assay buffer for 10% DMSO and 5 μL of the dilution was added to a 50 μL reaction so that the final concentration of DMSO is 1% in all reactions.
The enzymatic reactions were conducted at room temperature for 60 minutes in a 50 μL mixture containing PDE assay buffer, 100 nM FAM-cGMP, a PDE enzyme (Table 2) and the test compounds.
After enzymatic reaction, 100 μL of a binding solution (1:100 dilution of the binding agent with the binding agent diluent) was added to each reaction and the reaction was performed at room temperature for 60 minutes.
Fluorescence intensity was measured at excitation of 485 nm and an emission of 528 nm using a Tecan Infinite M1000 microplate reader.
PDE activity assays were performed in duplicate at each concentration. Fluorescence intensity is converted to fluorescence polarization using the Tecan Magellan6 software. The fluorescence polarization (FPt) in absence of the compound in each data set was defined as 100% activity. In the absence of PDE and the compound, the value fluorescent polarization (FPb) in each data set was defined as 0% activity. The percent activity in the presence of compound was calculated according to Equation 1:
[formula] where FP=the fluorescence polarization in the presence of the compound.
The values of % activity versus a series of compound concentrations were then plotted using non-linear regression analysis of Sigmoidal dose-response curve generated with Equation 2:
[formula] where Y=percent activity, B=minimum percent activity, T=maximum percent activity, X=logarithm of compound, and Hill Slope=slope factor or Hill coefficient. The IC50 value was determined by the concentration causing a half-maximal percent activity. Results

androgen receptor (AR) = androgen receptor (AR) (Homo sapiens (Human), UniProt P10275); assay: Androgen receptor (AR) reporter assay, antagonist screen activated by R1881; assay type: cell-based; conditions: AR-UAS-bla GripTite 293 cells, antagonist mode, R1881 at EC80
Procedure: The protocols and results of this Example were carried out and obtained by Thermofisher Scientific.
Test compounds were received at 1000× (or greater) of the desired starting concentration in 100% DMSO. If compounds were supplied at greater that 1000× concentration, an initial dilution is made in 100% DMSO to bring the compounds to 1000× concentration. The 1000× test compounds were serially diluted (10 point ½-log increments) in 100% DMSO.
The Substrate Loading Solution consists of three Life Technologies reagents: Solution A (10 mM LiveBLAzer™-FRET B/G Substrate), Solution B and Solution C.
Androgen Receptor (AR)—Antagonist Screen, Activated by R1881
AR-UAS-bla GripTite™ 293 cells were thawed and resuspended in Assay Media (DMEM phenol red free, 2% CD-treated FBS, 0.1 mM NEAA, 1 mM Sodium Pyruvate, 100 U/mL/100 μg/mL Pen/Strep) to a concentration of 312,500 cells/mL. 4 μL of a 10× serial dilution of Cyproterone Acetate (control antagonist starting concentration, 3,160 nM) or compounds are added to appropriate wells of a Poly-D-Lysine assay plate. 32 μL of cell suspension was added to the wells and pre-incubated at 37° C./5% CO2 in a humidified incubator with compounds and control antagonist titration for 30 minutes. 4 μL of 10× control agonist R1881 at the pre-determined EC80 concentration was added to wells containing the control antagonist or compounds. The plate was incubated for 16-24 hours at 37° C./5% CO2 in a humidified incubator. 8 μL of 1 μM Substrate Loading Solution is added to each well and the plate was incubated for 2 hours at room temperature. The plate was read on a fluorescence plate reader (Tecan Safire^2).

Human androgen receptors = Human androgen receptors (Homo sapiens (Human), UniProt P10275, T878A); assay: Androgen receptor (AR) radioligand binding assay; conditions: receptors from human LNCaP cells, 0.5 nM [3H]Methyltrienolone, 20 hours at 4° C.; read-out: AR IC50
Procedure: Methods employed in this study have been adapted from the following literature procedure.
Human androgen receptors obtained from human LNCaP cells are used in modified HEPES buffer pH 7.4. […] Non-specific binding is estimated in the presence of 1 μM testosterone. […] (See, e.g., Traish, A. M et al., Binding of 7α, 17α-dimethyl-19-nortestosterone (Mibolerone) to androgen and progesterone receptors in human and animal tissues. Endocrinology. 118(4): 1327-1333, 1986).
Compounds are screened at 10 μM.
Where presented, IC50 values were determined by a non-linear, least squares regression analysis using MathIQ™ (ID Business Solutions Ltd., UK).

Chain of Human androgen receptors (P10275 whole entry T878A): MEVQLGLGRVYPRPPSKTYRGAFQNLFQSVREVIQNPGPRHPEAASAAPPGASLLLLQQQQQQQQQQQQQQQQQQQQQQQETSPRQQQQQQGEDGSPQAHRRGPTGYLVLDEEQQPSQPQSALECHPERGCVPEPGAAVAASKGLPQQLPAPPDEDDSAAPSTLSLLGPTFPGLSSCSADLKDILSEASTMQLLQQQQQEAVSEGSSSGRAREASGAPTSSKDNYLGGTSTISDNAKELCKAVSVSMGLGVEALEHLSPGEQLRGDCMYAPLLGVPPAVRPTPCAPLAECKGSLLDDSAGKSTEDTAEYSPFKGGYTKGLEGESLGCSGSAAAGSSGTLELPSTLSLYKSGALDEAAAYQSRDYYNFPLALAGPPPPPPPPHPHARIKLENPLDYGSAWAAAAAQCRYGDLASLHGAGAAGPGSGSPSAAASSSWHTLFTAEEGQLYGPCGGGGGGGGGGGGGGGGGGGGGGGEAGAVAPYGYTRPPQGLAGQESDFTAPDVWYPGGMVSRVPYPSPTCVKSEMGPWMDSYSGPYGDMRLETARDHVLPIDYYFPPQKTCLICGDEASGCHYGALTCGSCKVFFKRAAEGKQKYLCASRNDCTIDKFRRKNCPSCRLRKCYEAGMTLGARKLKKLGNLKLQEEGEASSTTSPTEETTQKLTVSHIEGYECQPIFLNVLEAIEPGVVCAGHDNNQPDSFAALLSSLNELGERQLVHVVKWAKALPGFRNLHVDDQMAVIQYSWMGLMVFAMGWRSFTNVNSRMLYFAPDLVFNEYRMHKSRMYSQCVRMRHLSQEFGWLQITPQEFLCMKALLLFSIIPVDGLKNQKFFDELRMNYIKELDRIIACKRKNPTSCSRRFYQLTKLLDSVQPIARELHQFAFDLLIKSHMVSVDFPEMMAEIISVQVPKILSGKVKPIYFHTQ
Chain of androgen receptor (AR) (P10275 other isoform, or with tags, fused parts or gaps): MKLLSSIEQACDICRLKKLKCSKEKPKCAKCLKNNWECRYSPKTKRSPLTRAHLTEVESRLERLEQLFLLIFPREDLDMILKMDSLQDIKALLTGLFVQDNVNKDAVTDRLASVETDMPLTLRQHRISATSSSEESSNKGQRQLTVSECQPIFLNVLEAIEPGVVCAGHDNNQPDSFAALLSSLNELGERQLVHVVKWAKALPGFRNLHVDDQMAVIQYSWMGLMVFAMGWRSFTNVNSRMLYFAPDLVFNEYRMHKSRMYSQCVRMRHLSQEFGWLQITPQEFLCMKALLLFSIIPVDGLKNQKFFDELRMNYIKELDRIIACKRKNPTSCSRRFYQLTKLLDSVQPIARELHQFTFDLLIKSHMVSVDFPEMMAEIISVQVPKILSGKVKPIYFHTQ

Structure (SMILES)	IC50 (human PDE-5A1)	IC50 (androgen receptor (AR))	IC50 (Human androgen receptors)
CCCc1nc(C)c2c(=O)[nH]c(-c3cc(N4C(=S)N(c5ccc(C#N)c(C(F)(F)F)c5)C(=O)C45CCCC5)ccc3OCC)nn12 [Compound 38, 4-(1-(4-ethoxy-3-(5-methyl-4-oxo-7-propyl-3,4-dihydroimidazo[5,1-f][1,2,4]triazin-2-yl)phenyl)-4-oxo-2-thioxo-1,3-diazaspiro[4.4]nonan-3-yl)-2-(trifluoromethyl)benzonitrile]	≤ 10 nM	≤ 500 nM	< 50 nM
CCCc1nc(C)c2c(=O)[nH]c(-c3cc(N4C(=S)N(c5ccc(C#N)c(C(F)(F)F)c5F)C(=O)C4(C)C)ccc3OCC)nn12 [Compound 47, 4-(3-(4-ethoxy-3-(5-methyl-4-oxo-7-propyl-3,4-dihydroimidazo[5,1-f][1,2,4]triazin-2-yl)phenyl)-4,4-dimethyl-5-oxo-2-thioxoimidazolidin-1-yl)-3-fluoro-2-(trifluoromethyl)benzonitrile]	≤ 10 nM	≤ 500 nM	< 50 nM
CCCc1nc(C)c2c(=O)[nH]c(-c3cc(N4C(=S)N(c5ccc(C#N)c(C(F)(F)F)c5F)C(=O)C45CCC5)ccc3OCC)nn12 [Compound 48, 4-(5-(4-ethoxy-3-(5-methyl-4-oxo-7-propyl-3,4-dihydroimidazo[5,1-f][1,2,4]triazin-2-yl)phenyl)-8-oxo-6-thioxo-5,7-diazaspiro[3.4]octan-7-yl)-3-fluoro-2-(trifluoromethyl)benzonitrile]	≤ 10 nM	≤ 500 nM	< 50 nM
CCCc1nc(C)c2c(=O)[nH]c(-c3cc(N4C(=S)N(c5ccc(C#N)c(C(F)(F)F)c5F)C(=O)C45CCOC5)ccc3OCC)nn12 (stereo not drawn) [Compound 49, 4-(1-(4-ethoxy-3-(5-methyl-4-oxo-7-propyl-3,4-dihydroimidazo[5,1-f][1,2,4]triazin-2-yl)phenyl)-4-oxo-2-thioxo-7-oxa-1,3-diazaspiro[4.4]nonan-3-yl)-3-fluoro-2-(trifluoromethyl)benzonitrile]	≤ 10 nM	500 to 1000 nM	< 50 nM
CCCc1nc(C)c2c(=O)[nH]c(-c3cc(N4C(=S)N(c5ccc(C#N)c(C(F)(F)F)c5F)C(=O)C45CCCC5)ccc3OCC)nn12 [Compound 50, 4-(1-(4-ethoxy-3-(5-methyl-4-oxo-7-propyl-3,4-dihydroimidazo[5,1-f][1,2,4]triazin-2-yl)phenyl)-4-oxo-2-thioxo-1,3-diazaspiro[4.4]nonan-3-yl)-3-fluoro-2-(trifluoromethyl)benzonitrile]	≤ 10 nM	≤ 500 nM	< 50 nM
